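Cultured in 96-well plates, cells were exposed to test compound for 48 hours across five concentrations. The concentration for 50% growth inhibition is given as GI50. The concentration for full growth arrest is given as TGI.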

Test systems include TK-10 renal; SR leukemia; OVCAR-3 ovarian; RXF 393 renal; SF-539 CNS; BT-549 breast; SF-268 CNS; SK-MEL-5 melanoma; NCI-H23 lung; MOLT-4 leukemia.
Common to all, as to assay: growth of human tumour cells (NCI), 48 h

`COc1ccc2c(c1)NC1(CCN(CCCC(=O)c3ccc(F)cc3)CC1)N=N2`: the TGI in the assay with TK-10 renal is 62.2 µM; in the assay on SR leukemia, 35.4 µM; with OVCAR-3 ovarian, 53.5 µM; in the assay with RXF 393 renal, 55.1 µM; in the assay on SF-539 CNS, 35.9 µM; in the assay on BT-549 breast, 74.7 µM. Besides, the TGI with SF-268 CNS is over 100 µM; with SK-MEL-5 melanoma it was 25.3 µM; in the assay on NCI-H23 lung it was 97.7 µM; in the assay on MOLT-4 leukemia, 41.4 µM.
In the case of `COC1=C(C)C(=O)C2=C(C1=O)C1C3CC4=C(C(=O)C(OC)=C(C)C4=O)C(CNC(=O)C(C)O)N3C(C#N)C(C2)N1C` (stereo not given), the TGI with TK-10 renal is 0.579 µM; in the assay with SR leukemia it was over 100 µM; in the assay on OVCAR-3 ovarian, under 0.01 µM; in the assay with RXF 393 renal it was 0.022 µM; with SF-539 CNS, under 0.0117 µM; in the assay on BT-549 breast, under 0.01 µM. Also, the TGI is 0.146 µM in the assay on SF-268 CNS, under 0.01 µM with SK-MEL-5 melanoma, 0.0183 µM in the assay on NCI-H23 lung and under 0.215 µM in the assay on MOLT-4 leukemia.
`Cc1cc(OCCOCCC(F)(F)P(=O)(O)O)ccc1CCc1cnc2c(N)nc3cc(CCC(=O)O)ccc3c2c1`: the GI50 in the assay on TK-10 renal, in the assay on SR leukemia, with OVCAR-3 ovarian, in the assay on RXF 393 renal, in the assay on SF-539 CNS and in the assay on BT-549 breast was over 100 µM in each case. Further, the GI50 with SF-268 CNS, with SK-MEL-5 melanoma, with NCI-H23 lung and in the assay on MOLT-4 leukemia was over 100 µM in each case. Moreover, the TGI in the assay with TK-10 renal, with SR leukemia, in the assay on OVCAR-3 ovarian, in the assay with RXF 393 renal, in the assay on SF-539 CNS and with BT-549 breast was over 100 µM in each case. The TGI in the assay on SF-268 CNS, in the assay with SK-MEL-5 melanoma, in the assay on NCI-H23 lung and in the assay with MOLT-4 leukemia was over 100 µM in each case.
Turning to `O=C(O)c1c2c(cc3c1CC1(Cc4cc5c(cc4C1=O)CCC5)C3)CCC2` (stereo not given), the TGI with TK-10 renal, with SR leukemia, in the assay on OVCAR-3 ovarian, in the assay with RXF 393 renal, with SF-539 CNS and in the assay on BT-549 breast was over 100 µM in each case. The TGI in the assay on SF-268 CNS, in the assay with SK-MEL-5 melanoma, in the assay with NCI-H23 lung and in the assay with MOLT-4 leukemia was over 100 µM in each case.
With `COC(=O)c1ccccc1/C=C1\Cc2ccc3c(c2C1=O)CCCC3`, the TGI in the assay with TK-10 renal, in the assay with SR leukemia, in the assay on OVCAR-3 ovarian, in the assay on SF-539 CNS, with BT-549 breast and in the assay on SF-268 CNS was over 100 µM throughout. In addition, the TGI with NCI-H23 lung and in the assay with MOLT-4 leukemia was over 100 µM each time.
In the case of `O=C(O)/C(=C\c1ccc(O)cc1)c1cccc2ccccc12`, the TGI in the assay on TK-10 renal, in the assay with SR leukemia, in the assay with OVCAR-3 ovarian, in the assay on RXF 393 renal, in the assay with BT-549 breast and with SF-268 CNS was over 100 µM throughout. Moreover, the TGI with SK-MEL-5 melanoma, in the assay with NCI-H23 lung and with MOLT-4 leukemia was over 100 µM each time.
Consider `C=CC(=O)N1C/C(=C\c2ccc([N+](=O)[O-])cc2)C(=O)/C(=C/c2ccc([N+](=O)[O-])cc2)C1`, for which the TGI with TK-10 renal is 2.09 µM; in the assay with SR leukemia, over 100 µM; with OVCAR-3 ovarian it was 1.08 µM; in the assay on RXF 393 renal, 0.359 µM; in the assay with SF-539 CNS, 0.151 µM; in the assay on BT-549 breast, 0.567 µM. The TGI worked out at 0.338 µM with SF-268 CNS, 2.54 µM with SK-MEL-5 melanoma and 0.791 µM in the assay with NCI-H23 lung.
With `COC(=O)[C@]1(c2cc3ccccc3[nH]2)CC2CN(C(=O)OCc3ccccc3)C1CC2=O` (stereo not given in full), the TGI with TK-10 renal is over 100 µM; in the assay on OVCAR-3 ovarian it was over 100 µM; in the assay on RXF 393 renal it was 68.2 µM; in the assay on SF-539 CNS, over 100 µM; in the assay on BT-549 breast it was 95.5 µM; in the assay with SF-268 CNS, over 100 µM. The TGI in the assay on SK-MEL-5 melanoma is 34.5 µM; in the assay on NCI-H23 lung, over 100 µM; with MOLT-4 leukemia, 32.6 µM.
As for `Nc1ccc2ccc(N3CCNCC3)nc2n1`, the TGI in the assay with TK-10 renal, in the assay with SR leukemia, with OVCAR-3 ovarian, with SF-539 CNS, in the assay on BT-549 breast and in the assay with SF-268 CNS was over 100 µM in each case. The TGI in the assay on NCI-H23 lung and in the assay with MOLT-4 leukemia was over 100 µM each time.
Regarding `CCCOP(=O)(OCCC)OC(C(F)(F)F)C(F)(F)F`, the TGI with TK-10 renal, in the assay on SR leukemia, with OVCAR-3 ovarian, in the assay with RXF 393 renal, in the assay on SF-539 CNS and with BT-549 breast was over 100 µM throughout. In addition, the TGI with NCI-H23 lung and in the assay with MOLT-4 leukemia was over 100 µM each time.
For `Cc1ccc(-c2cc[n+]3c(n2)oc2ccccc23)cc1`, the TGI in the assay with SR leukemia was 47 µM; in the assay with OVCAR-3 ovarian it was 40.9 µM; in the assay with SF-539 CNS, 58.6 µM; in the assay on BT-549 breast, 76.6 µM; in the assay with SF-268 CNS, over 100 µM; in the assay on NCI-H23 lung, over 100 µM. The same compound had a TGI in the assay on MOLT-4 leukemia of 31.3 µM.
On to `CCN(CC)CC1CN=C(N)O1` (stereo not given), for which the TGI with SR leukemia, in the assay on OVCAR-3 ovarian, in the assay with RXF 393 renal, in the assay on SF-539 CNS, with BT-549 breast and with SK-MEL-5 melanoma was over 100 µM throughout. For the same compound, the TGI in the assay on NCI-H23 lung and in the assay on MOLT-4 leukemia was over 100 µM throughout.
For the compound `COC(=O)C1=C(O)CCCC(C2CCCCC(=O)C2C(=O)OC)=C1` (stereo not given), the TGI with TK-10 renal, with SR leukemia, with OVCAR-3 ovarian, in the assay on RXF 393 renal, in the assay with SF-539 CNS and with BT-549 breast was over 100 µM throughout. Moreover, the TGI with SK-MEL-5 melanoma, in the assay with NCI-H23 lung and in the assay on MOLT-4 leukemia was over 100 µM in each case.

The values are drawn from PubChem BioAssay (NCI).
